From US12662451B2, “Chemical compounds and uses thereof” (GLAXOSMITHKLINE INTELLECTUAL PROPERTY (NO.4) LIMITED, priority 2023, dated 2026) come the findings set out here.

Each structure is given as a SMILES string.

In assay [1] the target is T1, recombinant full-length WRN protein (1-1432) (Homo sapiens, UniProt Q14191).
T1 construct: recombinant full-length WRN protein (1-1432)
The assay is described as follows: WRN unwinding activity, fluorogenic 384-well assay (Example A). The class given is biochemical. The following applies: WRN unwinding activity, 4 hr; Table 2; read-out: 4 hr UNW pIC50 (converted). The protocol:
Functional WRN unwinding activity can be measured using a fluorogenic plate based 384 well assay configured to measure the separation of labeled double stranded DNA substrate. Compounds were dosed out in neat DMSO with a 1:3 serial dilution scheme. 100 nL of compound was stamped into Greiner low volume black assay plates (Greiner Cat #784076) using the Echo Acoustic Dispenser to generate assay ready plates. All solutions were prepared in assay buffer (25 mM TRIS (pH8.0), 5 mM NaCl, 2 mM MgCl2, 1 mM DTT, 0.05% BSA) for this 10 μL low volume reaction. To prepare the solutions, a 2×WRN Enzyme cocktail was made containing 200 pM of recombinant full-length WRN protein (1-1432). A 2× Substrate cocktail was made to consist of both 200 μM ATP (any ultrapure ATP sample) and 12 nM of the fluorescent quenched labeled double stranded DNA oligomer (IDT Custom synthesis; 5′-5IABkFQ (SEQ ID NO. 1)/GCACTGGCCGTCGTTTTACGGTCGTGACT-3′ (SEQ ID NO. 2): 5′-TTTTTTACTTAACGACGGCCAGTGC (SEQ ID NO. 3)/36-TAMTSP/-3′ (SEQ ID NO. 4)). To start the reaction, 5 μL of assay buffer was added to a single column to serve as the low control. Following this, 5 μL of 2×WRN Enzyme was added in all wells except the buffer low control wells. The reaction plate was covered and incubated at ambient temperature for 4 hours to allow for time dependent inhibition if it existed. After 4 hours, the addition of 5 μL of 2×-ATP/DNA substrate cocktail was added across all wells of the assay plate. This initiated the reaction, as the plate was incubated at ambient temperature for 60 minutes for the unwinding reaction to occur. A 10 mM EDTA solution was prepared and added at 5 μL across the entire plate after 60 minutes to quench the samples for an endpoint measurement. Fluorescent intensity was measured using excitation and emission wavelengths of 525 nm and 598 nm, respectively. High florescent intensity (DMSO with buffer) represents full inhibition of unwinding activity and low florescent intensity (DMSO with enzyme) represents no inhibition of unwinding activity. The potency of the compounds was determined using a four-parameter inhibition model to generate pIC50, Hill Slope, maximum inhibition (see Table 2).

Assay [2] concerns SW48 human colorectal cancer cells (MSI-H cancer cells). The assay is described as follows: SW48 cell viability, CellTiter-Glo, 120 hours (Example B). The following applies: Homo sapiens, SW48, 120 h, read-out: SW48 pCC50, SW48 cell viability, 120 hours incubation (converted); Table 2.

T1 sequence (Q14191 whole entry): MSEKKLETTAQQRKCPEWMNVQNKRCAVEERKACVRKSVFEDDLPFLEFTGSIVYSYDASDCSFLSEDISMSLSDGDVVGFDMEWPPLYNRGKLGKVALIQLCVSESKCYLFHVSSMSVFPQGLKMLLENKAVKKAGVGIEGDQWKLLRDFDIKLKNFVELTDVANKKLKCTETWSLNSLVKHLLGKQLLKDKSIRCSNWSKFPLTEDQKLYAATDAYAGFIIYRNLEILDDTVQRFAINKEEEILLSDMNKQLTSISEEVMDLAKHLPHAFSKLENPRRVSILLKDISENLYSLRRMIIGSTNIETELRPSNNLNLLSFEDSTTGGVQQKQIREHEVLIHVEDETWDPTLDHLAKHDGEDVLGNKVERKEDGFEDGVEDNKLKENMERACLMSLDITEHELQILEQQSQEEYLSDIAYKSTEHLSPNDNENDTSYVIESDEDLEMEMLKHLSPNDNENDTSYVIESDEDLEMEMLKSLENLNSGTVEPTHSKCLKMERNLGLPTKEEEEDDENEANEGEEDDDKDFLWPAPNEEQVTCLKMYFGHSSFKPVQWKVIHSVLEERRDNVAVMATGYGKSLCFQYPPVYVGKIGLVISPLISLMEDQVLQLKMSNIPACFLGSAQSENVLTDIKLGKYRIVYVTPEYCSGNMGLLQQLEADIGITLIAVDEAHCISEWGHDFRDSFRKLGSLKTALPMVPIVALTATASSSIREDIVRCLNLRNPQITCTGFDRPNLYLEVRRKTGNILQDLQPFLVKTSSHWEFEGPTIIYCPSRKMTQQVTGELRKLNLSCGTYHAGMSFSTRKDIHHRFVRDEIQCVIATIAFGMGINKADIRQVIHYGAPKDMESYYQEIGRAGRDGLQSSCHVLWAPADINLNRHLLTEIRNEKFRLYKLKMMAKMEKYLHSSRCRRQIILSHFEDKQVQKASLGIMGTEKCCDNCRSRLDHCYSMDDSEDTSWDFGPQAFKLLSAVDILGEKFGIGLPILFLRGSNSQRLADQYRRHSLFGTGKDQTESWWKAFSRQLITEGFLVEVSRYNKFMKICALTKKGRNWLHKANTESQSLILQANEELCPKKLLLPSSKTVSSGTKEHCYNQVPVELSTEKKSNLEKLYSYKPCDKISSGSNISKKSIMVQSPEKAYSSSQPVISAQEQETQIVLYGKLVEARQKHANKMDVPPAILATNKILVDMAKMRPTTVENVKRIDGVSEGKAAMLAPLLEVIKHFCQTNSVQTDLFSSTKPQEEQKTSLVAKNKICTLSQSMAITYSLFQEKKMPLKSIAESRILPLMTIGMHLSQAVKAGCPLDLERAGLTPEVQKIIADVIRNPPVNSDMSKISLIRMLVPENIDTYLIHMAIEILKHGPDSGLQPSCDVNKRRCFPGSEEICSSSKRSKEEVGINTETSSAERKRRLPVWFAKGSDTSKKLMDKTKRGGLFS

As to `O=C(O)[C@@H]1[C@@H](c2ccc([C@H]3CCCOCC3)cc2)CCC[C@H]1C(=O)Nc1ccc(C(F)(F)F)cc1F` (racemic) [Example 59, 1:1 Mixture of (1R,2R,6S)-2-((2-fluoro-4-(trifluoromethyl)phenyl)carbamoyl)-6-(4-((S)-oxepan-4-yl)phenyl)cyclohexane-1-carboxylic acid AND (1R,2R,6S)-2-((2-fluoro-4-(trifluoromethyl)phenyl)carbamoyl)-6-(4-((R)-oxepan-4-yl)phenyl)cyclohexane-1-carboxylic acid], the IC50 in assay [1] is 794 nM.

As for `O=C(O)[C@@H]1[C@@H](c2ccc([C@H]3CC34CCOCC4)cc2)CCC[C@H]1C(=O)Nc1ccc(C(F)(F)F)cc1F` (racemic) [Example 65, 1:1 Mixture of (1R,2S,6R)-2-(4-((S)-6-oxaspiro[2.5]octan-1-yl)phenyl)-6-((2-fluoro-4-(trifluoromethyl)phenyl)carbamoyl)cyclohexane-1-carboxylic acid AND (1R,2S,6R)-2-(4-((R)-6-oxaspiro[2.5]octan-1-yl)phenyl)-6-((2-fluoro-4-(trifluoromethyl)phenyl)carbamoyl)cyclohexane-1-carboxylic acid], the IC50 in assay [1] was 50.1 nM.

For the compound `C=CC1COC[C@@H]1c1ccc([C@H]2CCC[C@@H](C(=O)Nc3ccc(C(F)(F)F)cc3F)[C@@H]2C(=O)O)cc1` (mixture of isomers) [Example 66, 1:1 Mixture of (1R,2R,6S)-2-((2-fluoro-4-(trifluoromethyl)phenyl)carbamoyl)-6-(4-((3S)-4-vinyltetrahydrofuran-3-yl)phenyl)cyclohexane-1-carboxylic acid AND (1R,2R,6S)-2-((2-fluoro-4-(trifluoromethyl)phenyl)carbamoyl)-6-(4-((3R)-4-vinyltetrahydrofuran-3-yl)phenyl)cyclohexane-1-carboxylic acid], the IC50 in assay [1] is 2510 nM.

For `COC(=O)[C@H]1C[C@H]1c1ccc([C@H]2CCC[C@@H](C(=O)Nc3ccc(C(F)(F)F)cc3F)[C@@H]2C(=O)O)cc1` (racemic) [Example 67, 1:1 Mixture of (1R,2R,6S)-2-((2-fluoro-4-(trifluoromethyl)phenyl)carbamoyl)-6-(4-((1R,2S)-2-(methoxycarbonyl)cyclopropyl)phenyl)cyclohexane-1-carboxylic acid AND (1R,2R,6S)-2-((2-fluoro-4-(trifluoromethyl)phenyl)carbamoyl)-6-(4-((1S,2S)-2-(methoxycarbonyl)cyclopropyl)phenyl)cyclohexane-1-carboxylic acid], the IC50 in assay [1] was 2000 nM.

For `O=C(O)[C@@H]1[C@@H](c2ccc([C@H]3[C@@H]4CNCC[C@@H]43)cc2)CCC[C@H]1C(=O)Nc1ccc(C(F)(F)F)cc1F` (racemic) [Example 70], in assay [1], the IC50 was 15800 nM.

For the compound `Cc1nc2cc(S(=O)(=O)N(C)c3ccc([C@H]4CCC[C@H](C(=O)Nc5ccc(C(C)C)cc5)[C@@H]4C(=O)O)cc3)ccc2n1C` (racemic) [Example 72, rac-(1R,2S,6S)-2-((4-isopropylphenyl)carbamoyl)-6-(4-((N,1,2-trimethyl-1H-benzo[d]imidazole)-5-sulfonamido)phenyl)cyclohexane-1-carboxylic acid], the IC50 in assay [1] is 3.16 nM.

Take `Cc1nc2cc(S(=O)(=O)N(C)c3ccc([C@H]4CCC[C@@H](C(=O)NC56CC(C)(C5)C6)[C@@H]4C(=O)O)cc3)ccc2n1C` (racemic) [Example 178]: the IC50 in assay [1] was 5010 nM.

As for `Cc1nc2cc(S(=O)(=O)N(C)c3ccc([C@H]4CCC[C@@H](CNc5ccc(C(C)C)cc5)[C@@H]4C(=O)O)cc3)ccc2n1C` (racemic) [Example 200, rac-(1R,2R,6S)-2-(((4-isopropylphenyl)amino)methyl)-6-(4-((N,1,2-trimethyl-1H-benzo[d]imidazole)-5-sulfonamido)phenyl)cyclohexane-1-carboxylic acid], in assay [1], the IC50 is 12.6 nM.

Turning to `Cc1nc2cc(S(=O)(=O)N(C)c3ccc([C@H]4CCC[C@@H](CN5CC6(C5)CC(F)(F)C6)[C@@H]4C(=O)O)cc3)ccc2n1C` (racemic) [Example 201, rac-(1R,2R,6S)-2-((6,6-difluoro-2-azaspiro[3.3]heptan-2-yl)methyl)-6-(4-((N,1,2-trimethyl-1H-benzo[d]imidazole)-5-sulfonamido)phenyl)cyclohexane-1-carboxylic acid], in assay [1], the IC50 was 25100 nM.

Turning to `Cc1nc2cc(S(=O)(=O)N(C)c3ccc([C@H]4CCC[C@@H](CN(C)C5CCOCC5)[C@@H]4C(=O)O)cc3)ccc2n1C` (racemic) [Example 202, rac-(1R,2R,6S)-2-((methyl(tetrahydro-2H-pyran-4-yl)amino)methyl)-6-(4-((N,1,2-trimethyl-1H-benzo[d]imidazole)-5-sulfonamido)phenyl)cyclohexane-1-carboxylic acid], in assay [1], the IC50 is 100000 nM.

For the compound `O=C(O)[C@@H]1[C@@H](c2ccc(N3CCCCC3)cc2)CCC[C@H]1C(=O)Nc1ccc(C(F)(F)F)cc1F` (racemic) [Example 222, rac-(1R,2R,6S)-2-((2-fluoro-4-(trifluoromethyl)phenyl)carbamoyl)-6-(4-(piperidin-1-yl)phenyl)cyclohexane-1-carboxylic acid], the IC50 in assay [1] was 501 nM.

For `O=C(O)[C@@H]1[C@@H](c2ccc(N3CCC4(CC3)CO4)cc2)CCC[C@H]1C(=O)Nc1ccc(C(F)(F)F)cc1F` (racemic) [Example 228, rac-(1R,2S,6R)-2-(4-(1-oxa-6-azaspiro[2.5]octan-6-yl)phenyl)-6-((2-fluoro-4-(trifluoromethyl)phenyl)carbamoyl)cyclohexane-1-carboxylic acid], the IC50 in assay [1] was 6310 nM.

For the compound `COCCOc1cc([C@H]2CCC[C@@H](C(=O)Nc3ccc(C(F)(F)F)cc3F)[C@@H]2C(=O)O)ccc1C(F)(F)F` (racemic) [Example 234, rac-(1R,2R,6S)-2-((2-fluoro-4-(trifluoromethyl)phenyl)carbamoyl)-6-(3-(2-methoxyethoxy)-4-(trifluoromethyl)phenyl)cyclohexane-1-carboxylic acid], the IC50 in assay [1] was 1000 nM.

Turning to `COc1cc(C(F)(F)F)ccc1[C@H]1CCC[C@@H](C(=O)Nc2ccc(C(F)(F)F)cc2F)[C@@H]1C(=O)O` (racemic) [Example 237, rac-(1R,2R,6S)-2-((2-fluoro-4-(trifluoromethyl)phenyl)carbamoyl)-6-(2-methoxy-4-(trifluoromethyl)phenyl)cyclohexane-1-carboxylic acid], the IC50 in assay [1] is 200 nM.

`CC(C)(O)C#Cc1cc([C@H]2CCC[C@@H](C(=O)Nc3ccc(C(F)(F)F)cc3F)[C@@H]2C(=O)O)ccc1C(F)(F)F` (racemic) [Example 239, rac-(1R,2R,6S)-2-((2-fluoro-4-(trifluoromethyl)phenyl)carbamoyl)-6-(3-(3-hydroxy-3-methylbut-1-yn-1-yl)-4-(trifluoromethyl)phenyl)cyclohexane-1-carboxylic acid]: the IC50 in assay [1] was 251 nM.

On to `Cc1nc2cc(S(=O)(=O)N(C)c3ccc([C@H]4CN(CC(F)(F)F)C[C@@H](C(=O)Nc5ccc(C(F)(F)F)cc5F)[C@@H]4C(=O)O)cc3)ccc2n1C` (relative stereo) [Example 358, rel-(3R,4S,5R)-3-((2-fluoro-4-(trifluoromethyl)phenyl)carbamoyl)-1-(2,2,2-trifluoroethyl)-5-(4-((N,1,2-trimethyl-1H-benzo[d]imidazole)-5-sulfonamido)phenyl)piperidine-4-carboxylic acid], for which, in assay [2], the CC50 is 631 nM.

As to `Cc1nc2cc(S(=O)(=O)N(C)c3ccc([C@H]4C[C@H](N5CCC[C@H](F)C5)C[C@@H](C(=O)Nc5ccc(C(F)(F)F)cc5F)[C@@H]4C(=O)O)cc3)ccc2n1C` (stereo in doubt) [Example 351, rel-(1R*,2R*,4S*,6S*)-2-((2-fluoro-4-(trifluoromethyl)phenyl)carbamoyl)-4-((S)-3-fluoropiperidin-1-yl)-6-(4-((N,1,2-trimethyl-1H-benzo[d]imidazole)-5-sulfonamido)phenyl)cyclohexane-1-carboxylic acid], the CC50 in assay [2] was 10000 nM.

Regarding `Cc1nc2cc(S(=O)(=O)N(C)c3ccc([C@@H]4C[C@@H]5COC[C@@H]5[C@H](C(=O)Nc5ccc(C(F)(F)F)cc5F)[C@H]4C(=O)O)cc3)ccc2n1C` (stereo in doubt) [Example 391, rel-(3aR,4R,5R,6S,7aR)-4-((2-fluoro-4-(trifluoromethyl)phenyl)carbamoyl)-6-(4-((N,1,2-trimethyl-1H-benzo[d]imidazole)-5-sulfonamido)phenyl)octahydroisobenzofuran-5-carboxylic acid], in assay [2], the CC50 is 20000 nM.
